Measured values reported in patent publication US20250034105A1, “IS[…] N-METHYL-1,3-BENZODIOXOLYLBUTANAMINE (MBDB) AND STEREOISOMERS THEREOF” (Terran Biosciences Inc., priority 2021, published 2025).

What was measured:
[1] = cited from earlier work
[2] = system: participants diagnosed with at least moderate post-traumatic stress disorder (PTSD); assay: Double-blind, randomized, placebo-controlled clinical trial of MBDB-assisted psychotherapy in PTSD; assay type: in vivo, human; conditions: results that "may" be observed; for change in CAPS-5 assessment compared to the placebo group: at Study Conclusion
Description: A multicenter, randomized, double-blind, placebo-controlled trial is conducted to assess the efficacy and safety of MBDB-assisted psychotherapy versus psychotherapy with placebo control in participants diagnosed with at least moderate post-traumatic stress disorder (PTSD). Rationale
This multicenter, randomized, double-blind, placebo-controlled trial is conducted at various sites in the United States with IRB approval from each study site. A flexible dose of MBDB hydrochloride salt or placebo, followed by a supplemental half-dose unless contraindicated by patient's previous response or medical history, is also administered during the Treatment Period with psychotherapy in at least 3 blinded monthly Experimental Sessions. The Supplemental Dose extends the duration of drug effects on the participants during an Experimental Session. MBDB test groups are further subdivided into specific groups receiving only racemic MBDB hydrochloride salt, S-MBDB hydrochloride salt, or R-MBDB hydrochloride salt. An optional Risk Evaluation and Mitigation Strategy (REMS) Protocol may be implemented for the racemic MBDB, S-MBDB, R-MBDB, and placebo-groups. The Treatment Period lasts for approximately 12 weeks. During the Treatment Period, each Experimental Session is followed by three Intervening Sessions of non-drug psychotherapy. Each Experimental Session involves an overnight stay. The Primary Outcome measure, the change in Clinician Administered PTSD Scale for DSM-5 (CAPS-5), is determined by a blinded Independent Rater (IR) pool multiple times throughout the study. The study consists of separate periods for each participant. Initially, prospective participants undergo a Screening Period involving an initial eligibility assessment, a medical history intake, informed consent, and enrollment of eligible participants. Next, a Preparation Period is undertaken for enrolled participants involving medication tapering and clinical baseline assessments to confirm each participant meets enrollment criteria. As part of the Preparation Period, a detailed assessment of co-morbidities to PTSD is recorded. Participants may remain on prescribed courses of selective serotonin reuptake inhibitor (SSRI) or serotonin and norepinephrine reuptake inhibitor (SNRI) treatment. Dosages and/or frequency of administration of a prescribed SSRI or SNRI may be adjusted to fit within study parameters. Participants may be required to taper a prescribed course of medication in order to maintain eligibility within the study. The Treatment Period consists of three monthly Experimental Sessions and associated Intervening Sessions of integrative behavioral psychotherapy. The Treatment Period lasts approximately 12 weeks. Following the Treatment Period is a Follow-up Period and Study Conclusion. During the Follow-up Period and Study Conclusion, participants complete 4 weeks with no study visits, followed by a Study Conclusion visit.
This study compares the effects of three blinded Experimental Sessions of psychotherapy in combination with flexible doses of MBDB or placebo administered as described below. Non-drug preparatory and intervening psychotherapy sessions are also included. Patient's weight is determined for dosage calculation. Initial dose is 180 mg unless this will result in a dosage of less than 1.5 mg/kg of patient weight. Initial dose thereby adjusted upward in 50 mg increments to deliver the lowest dose possible of at least 1.5 mg/kg of patient weight. Initial dose for Experimental Session 2 and 3 is cumulative dose calculated by adding the initial dose plus REMS protocol dose used the previous Experimental Session for each patient.
The primary objective of this study is to evaluate the efficacy and safety of MBDB treatment combined with psychotherapy to treat moderate to severe PTSD compared to identical psychotherapy combined with placebo treatment. […]

Male Sprague-Dawley rats = assay: Rat elevated zero maze model of anxiety; assay type: in vivo; conditions: for frequency of stretched attend postures (SAPs): 30 min before 5-min test; for dose at which switch to an anxiolytic effect was shown (magnitude of reduction in SAPs): ip, rat zero maze
Source text: The rat zero-maze model is a refined alternative to the plus-maze, the most widely used animal model of anxiety, and consists of an elevated annular platform, divided equally into four quadrants. Two opposite quadrants are enclosed by Perspex walls on both the inner and the outer edges of the platform, while the remaining two opposite quadrants are open being enclosed only by a Perspex “lip”. Animals will show a preference for the closed areas, and avoidance of the open sections is assumed to stem from a rodent's natural aversion to open, exposed spaces. A reduction in the amount of activity on the open areas is considered to reflect an increase in anxiety. The ethologically-based behavior stretched attend postures (SAP) from closed to open quadrants is assessed as an index of anxiety. Increase in SAPs is indicative of an anxiogenic effect and decreases in SAPs is indicative of an anxiolytic effect. Shepherd, J K; Grewel, S S; Fletcher, A; Bill, D J; Dourish, C T (1994) Behavioural and pharmacological validation of the elevated “zero-maze” as an animal model of anxiety. Psychopharmacol., 116:56-64.
Male Sprague-Dawley 200-250 g (Envigo UK) rats were used. Animals were group-housed (5 per cage; cage size: 40×40×20 cm) in a temperature-controlled environment (22±2° C.), under a 12 h light-dark cycle (lights on: 08:00 hours) for one week prior to testing. Food and water were freely available. Number of animals per group=5. Animals were moved into the experimental room 16-24 hours before testing.
The elevated 0-maze comprises a black Perspex annular platform (105 cm diameter, 10 cm width) elevated to 65 cm above ground level, divided equally into four quadrants. Two opposite quadrants are enclosed by clear red Perspex walls (27 cm high) on both the inner and outer edges of the platform, while the remaining two opposite quadrants are surrounded only by a Perspex “lip” (1 cm high) which serves as a tactile guide to animals on these open areas.
Subjects were weighed and tail marked before being injected. After a specified pre-treatment time, subjects were placed in a closed quadrant and a 5-min test period were recorded on videotape for subsequent analysis. The maze was cleaned with 5% methanol/water solution and dried thoroughly between test sessions. Behavioural measures comprise percentage time spent on the open areas (% TO) and frequency of stretched attend postures (SAP) from closed to open quadrants. Since the control groups were all treated identically with the same vehicle these were combined to increase power. The Chlordiazepoxide groups were also treated identically with the same dose so these were also combined to increase power. Animals are scored as being in the open area when all four paws were in an open quadrant and in the closed area only when all four paws have passed over the open-closed divide. All testing were carried out between 9.00 and 16.00 hours.
Chlordiazepoxide was formulated in Vehicle 1 (saline) to a concentration of 1.2 mg/mL to provide a dose of 6 mg/kg when administered ip in 5 mL/kg dosing volumes.
35 male Sprague-Dawley rats in treatment groups of 5, were intraperitoneally dosed with either Vehicle 1 (saline) or Rac-MBDB at 1 of 5 dose levels (2.5, 5, 10, 15 & 30 mg/kg) or chlordiazepoxide (6 mg/kg) in 5 mL/kg injection volumes. Thirty min later at T-0, rats were individually placed in a closed arm of the zero-maze and behavior assessed by a “blind” observer using remote video monitoring over the subsequent 5 min. The animals were then removed and the maze carefully wiped with 5% methanol/water solution before the next test was begun.
35 male Sprague-Dawley rats in treatment groups of 5, were intraperitoneally dosed with either Vehicle 1 (saline) or R-MBDB at 1 of 5 dose levels (2.5, 5, 10, 15 & 30 mg/kg) or chlordiazepoxide (6 mg/kg) in 5 mL/kg injection volumes. […]

Compound | Coming Down, time after dose ([1]; adapted from PiHKAL 1991) [min] | Oral MBDB dose, drug activity level Very Strong ([1]; oral) [mg] | change in CAPS-5 assessment compared to the placebo group [2] | clinician-rated functional impairment score as measured by SDS compared to placebo-treated controls [2] | daytime sleepiness as measured by ESS [2] | depression as measured by HAM-D compared to placebo-treated controls [2] | frequency of stretched attend postures (SAPs) (Male Sprague-Dawley rats; 10 mg/kg ip) | frequency of stretched attend postures (SAPs) (Male Sprague-Dawley rats; 15 mg/kg ip) | frequency of stretched attend postures (SAPs) (Male Sprague-Dawley rats; 30 mg/kg ip, vs vehicle) | frequency of stretched attend postures (SAPs) (Male Sprague-Dawley rats; 30 mg/kg ip, vs vehicle, listed as R MBDB) | dose at which switch to an anxiolytic effect was shown (magnitude of reduction in SAPs) (Male Sprague-Dawley rats) [mg/kg] | frequency of stretched attend postures (SAPs) (Male Sprague-Dawley rats; 5 mg/kg ip, vs vehicle) | frequency of stretched attend postures (SAPs) (Male Sprague-Dawley rats; 30 mg/kg ip, vs vehicle, listed as S MBDB)
CCC(Cc1ccc2c(c1)OCO2)NC (stereo not drawn) [MBDB, 1-(benzo[d][1,3]dioxol-5-yl)-N-methylbutan-2-amine] | ~90 | ≥350 |  |  |  |  |  |  |  |  |  |  | 
CC[C@H](Cc1ccc2c(c1)OCO2)NC [R-MBDB] |  |  | significant mean reduction | significant improvement | significant improvement | significant improvement | produced a consistent level of SAPs similar to the 5 mg/kg | showed a reduction in the number of SAPs compared to lower doses | decreased the frequency of SAPs as effectively as the benzodiazepine chlordiazepoxide | significantly reduced the number of SAPs | 15 |  | 
CC[C@@H](Cc1ccc2c(c1)OCO2)NC [S-MBDB] |  |  | significant mean reduction | significant improvement | significant improvement | significant improvement | showed a rapid reduction in total SAPs | showed a reduction in the number of SAPs compared to lower doses | decreased the frequency of SAPs as effectively as the benzodiazepine chlordiazepoxide |  | 10 | reached significance | significantly reduced the number of SAPs
